Results taken from patent US9371320B2, “Heterocyclic compound” (TAKEDA PHARMACEUTICAL COMPANY LIMITED, priority 2012, dated 2016).

Legend:
[1] = target: T1, JAK1 (Homo sapiens, UniProt P23458); assay: JAK1 enzyme inhibition test (LANCE method); type: biochemical; details: for inhibition at 1 µM: test compound 1 μM, read-out: Inhibitory rate (%) JAK1 1 μM; for inhibition at 10 µM: test compound 10 μM (Ex. 182-220), beside Tyk2 1 μM, read-out: Inhibitory rate (%) JAK1 10 μM
T1 construct: purchased Invitrogen
T1 sequence (P23458 whole entry): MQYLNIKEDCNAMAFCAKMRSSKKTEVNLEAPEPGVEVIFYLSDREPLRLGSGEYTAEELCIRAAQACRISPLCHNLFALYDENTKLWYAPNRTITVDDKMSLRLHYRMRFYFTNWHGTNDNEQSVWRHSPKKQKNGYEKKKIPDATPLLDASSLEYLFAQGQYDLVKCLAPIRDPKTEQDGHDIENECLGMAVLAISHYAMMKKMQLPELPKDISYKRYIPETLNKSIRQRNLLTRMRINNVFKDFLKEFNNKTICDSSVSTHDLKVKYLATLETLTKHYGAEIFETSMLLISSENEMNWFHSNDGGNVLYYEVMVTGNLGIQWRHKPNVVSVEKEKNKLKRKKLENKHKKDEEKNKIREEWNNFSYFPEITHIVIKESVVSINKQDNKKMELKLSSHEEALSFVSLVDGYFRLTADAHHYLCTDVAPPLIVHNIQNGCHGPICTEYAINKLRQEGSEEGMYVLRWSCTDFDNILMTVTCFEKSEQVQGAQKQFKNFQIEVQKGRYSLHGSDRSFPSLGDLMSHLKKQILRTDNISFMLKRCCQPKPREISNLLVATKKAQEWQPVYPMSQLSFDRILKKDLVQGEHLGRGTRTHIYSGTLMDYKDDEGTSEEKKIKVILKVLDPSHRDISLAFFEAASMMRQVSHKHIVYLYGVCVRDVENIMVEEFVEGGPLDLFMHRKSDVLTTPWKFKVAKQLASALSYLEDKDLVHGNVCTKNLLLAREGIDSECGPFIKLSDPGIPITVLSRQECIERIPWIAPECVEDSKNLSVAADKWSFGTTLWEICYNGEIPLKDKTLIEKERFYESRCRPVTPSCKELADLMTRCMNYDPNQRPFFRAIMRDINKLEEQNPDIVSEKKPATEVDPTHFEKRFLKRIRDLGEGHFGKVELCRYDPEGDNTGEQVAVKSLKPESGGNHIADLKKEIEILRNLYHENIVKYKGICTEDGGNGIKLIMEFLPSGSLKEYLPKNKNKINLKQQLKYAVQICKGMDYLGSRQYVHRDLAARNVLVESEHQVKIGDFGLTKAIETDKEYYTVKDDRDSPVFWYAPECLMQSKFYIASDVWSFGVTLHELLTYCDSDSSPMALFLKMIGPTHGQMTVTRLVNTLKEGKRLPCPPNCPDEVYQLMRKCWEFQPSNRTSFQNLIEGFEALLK
In short: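 TR-FRET (LANCE) kinase assay using JAK1 at 187.5 ng/mL, ULight-JAK1 peptide at 300 nM and ATP at 150 μM, given as solution concentrations before mixing. Buffer was 50 mM HEPES pH 7.5 with 10 mM MgCl2 and 2 mM DTT, and the reaction ran 1 h at room temperature. Eu anti-phosphotyrosine signal at 665 nm was expressed relative to a no-enzyme well, taken as 100% inhibition.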

[2] = target: T2, Tyk2 (Homo sapiens, UniProt P29597); assay: Tyk2 enzyme inhibition test (LANCE method); type: biochemical; details: test compound 1 μM; read-out: Inhibitory rate (%) Tyk2 1 μM
T2 construct: purchased Invitrogen
T2 sequence (P29597 whole entry): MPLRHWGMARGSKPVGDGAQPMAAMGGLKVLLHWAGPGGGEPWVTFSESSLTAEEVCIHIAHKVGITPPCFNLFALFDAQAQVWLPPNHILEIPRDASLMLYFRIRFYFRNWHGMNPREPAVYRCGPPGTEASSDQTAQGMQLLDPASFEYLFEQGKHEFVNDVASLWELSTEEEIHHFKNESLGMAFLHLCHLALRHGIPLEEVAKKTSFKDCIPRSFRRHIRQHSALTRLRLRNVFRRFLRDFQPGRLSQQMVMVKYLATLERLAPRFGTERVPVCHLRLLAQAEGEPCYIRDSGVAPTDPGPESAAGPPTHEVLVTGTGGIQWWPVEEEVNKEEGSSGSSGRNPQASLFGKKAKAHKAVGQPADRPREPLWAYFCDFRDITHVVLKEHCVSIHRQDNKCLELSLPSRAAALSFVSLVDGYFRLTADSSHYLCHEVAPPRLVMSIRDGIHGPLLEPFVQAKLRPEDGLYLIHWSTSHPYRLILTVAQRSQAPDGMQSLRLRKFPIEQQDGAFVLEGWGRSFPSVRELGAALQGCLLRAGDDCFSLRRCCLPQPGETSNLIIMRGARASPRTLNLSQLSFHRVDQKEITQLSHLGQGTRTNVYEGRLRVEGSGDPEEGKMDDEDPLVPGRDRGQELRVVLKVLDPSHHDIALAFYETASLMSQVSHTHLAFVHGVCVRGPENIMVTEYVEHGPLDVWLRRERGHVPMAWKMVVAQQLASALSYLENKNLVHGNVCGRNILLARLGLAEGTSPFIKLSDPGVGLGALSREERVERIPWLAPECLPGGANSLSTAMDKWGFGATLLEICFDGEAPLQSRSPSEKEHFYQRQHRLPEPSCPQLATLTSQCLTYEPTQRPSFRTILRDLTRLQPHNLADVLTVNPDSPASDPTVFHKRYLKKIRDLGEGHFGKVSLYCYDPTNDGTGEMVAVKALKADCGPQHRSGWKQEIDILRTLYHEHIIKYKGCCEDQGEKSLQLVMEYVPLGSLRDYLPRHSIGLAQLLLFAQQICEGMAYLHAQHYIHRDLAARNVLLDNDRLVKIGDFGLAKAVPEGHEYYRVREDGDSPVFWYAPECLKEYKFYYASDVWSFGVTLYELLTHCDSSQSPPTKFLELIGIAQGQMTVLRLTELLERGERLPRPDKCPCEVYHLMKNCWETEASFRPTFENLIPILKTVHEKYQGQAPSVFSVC
In short: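 Recombinant Tyk2 (375 ng/mL stock) with ULight-JAK1 peptide (300 nM stock) and ATP (30 μM stock) in HEPES pH 7.5/MgCl2/EGTA/DTT buffer, 1 h at room temperature. Stopped with EDTA plus Eu-anti-phosphotyrosine antibody; TR-FRET read at 665 nm after 1 h. No-enzyme wells define 100% inhibition.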

| inhibition at 1 µM [1] | inhibition at 1 µM [2] | inhibition at 10 µM [1] | Compound |
| --- | --- | --- | --- |
| 98% | 93% | – | O=c1[nH]ccc2c1c(Nc1ccccc1)nn2C1CCCC1 [Example 283, 3-anilino-1-cyclopentyl-1,5-dihydro-4H-pyrazolo[4,3-c]pyridin-4-one] |
| 95% | 100% | – | O=c1[nH]cc(Br)c2c1c(-c1cn[nH]c1)nn2-c1c(F)cccc1F [Example 176, 7-bromo-1-(2,6-difluorophenyl)-3-(1H-pyrazol-4-yl)-1,5-dihydro-4H-pyrazolo[4,3-c]pyridin-4-one] |
| – | 94% | 22% | NC(=O)c1ccc(-c2nn(-c3c(F)cccc3F)c3c(Cl)c[nH]c(=O)c23)cc1F [Example 215, 4-(7-chloro-1-(2,6-difluorophenyl)-4-oxo-4,5-dihydro-1H-pyrazolo[4,3-c]pyridin-3-yl)-2-fluorobenzamide] |
| 59% | 35% | – | CCC(COC)n1cc(-c2ccc(CC#N)cc2)c2c(=O)[nH]ccc21 (stereo not drawn) [Example 20, (4-(1-(1-methoxybutan-2-yl)-4-oxo-4,5-dihydro-1H-pyrrolo[3,2-c]pyridin-3-yl)phenyl)acetonitrile] |
| 97% | 99% | – | O=C1CCCN1c1ccc(-c2nn(-c3c(F)cccc3F)c3cc[nH]c(=O)c23)cc1 [Example 292, 1-(2,6-difluorophenyl)-3-(4-(2-oxopyrrolidin-1-yl)phenyl)-1,5-dihydro-4H-pyrazolo[4,3-c]pyridin-4-one] |
| – | 98% | 82% | O=C1CCC(=O)N1Cc1ccc(-c2nn(-c3c(F)cccc3F)c3c(Cl)c[nH]c(=O)c23)cc1 [Example 219, 1-(4-(7-chloro-1-(2,6-difluorophenyl)-4-oxo-4,5-dihydro-1H-pyrazolo[4,3-c]pyridin-3-yl)benzyl)pyrrolidine-2,5-dione] |
| 99% | 100% | – | Nc1cc(F)c(-n2nc(-c3ccc(S(N)(=O)=O)cc3)c3c(=O)[nH]ccc32)c(F)c1 [Example 303, 4-(1-(4-amino-2,6-difluorophenyl)-4-oxo-4,5-dihydro-1H-pyrazolo[4,3-c]pyridin-3-yl)benzenesulfonamide] |
| 78% | 97% | – | N#Cc1c[nH]c(=O)c2c(-c3cccs3)cn(C3CCCC3)c12 [Example 134, 1-cyclopentyl-4-oxo-3-(2-thienyl)-4,5-dihydro-1H-pyrrolo[3,2-c]pyridine-7-carbonitrile] |
| – | 98% | 98% | NC(=O)Cc1ccc(-c2nn(C3CCCC3)c3cc[nH]c(=O)c23)cc1 [Example 182, 2-(4-(1-cyclopentyl-4-oxo-4,5-dihydro-1H-pyrazolo[4,3-c]pyridin-3-yl)phenyl)acetamide] |
| 99% | 96% | – | NS(=O)(=O)c1cccc(Nc2nn(C3CCCC3)c3cc[nH]c(=O)c23)c1 [Example 284, 3-((1-cyclopentyl-4-oxo-4,5-dihydro-1H-pyrazolo[4,3-c]pyridin-3-yl)amino)benzenesulfonamide] |
| – | 100% | 100% | CC1(O)CCC(n2nc(-c3ccc(S(N)(=O)=O)cc3)c3c(=O)[nH]ccc32)CC1 (stereo not drawn) [Example 196, 4-(1-(4-hydroxy-4-methylcyclohexyl)-4-oxo-4,5-dihydro-1H-pyrazolo[4,3-c]pyridin-3-yl)benzenesulfonamide] |
| 99% | 99% | – | O=c1[nH]ccc2c1c(-c1csc(N3CCOCC3)c1)nn2-c1c(F)cccc1F [Example 234, 1-(2,6-difluorophenyl)-3-(5-(morpholin-4-yl)-3-thienyl)-1,5-dihydro-4H-pyrazolo[4,3-c]pyridin-4-one] |
| 100% | 99% | – | O=C(NCCO)c1cc(-c2nn(C3CCCC3)c3cc[nH]c(=O)c23)cs1 [Example 157, 4-(1-cyclopentyl-4-oxo-4,5-dihydro-1H-pyrazolo[4,3-c]pyridin-3-yl)-N-(2-hydroxyethyl)thiophene-2-carboxamide] |
| 74% | 99% | – | NC(=O)Cc1cccc(-c2nn(-c3c(F)cccc3F)c3c(Br)c[nH]c(=O)c23)c1 [Example 147, 2-(3-(7-bromo-1-(2,6-difluorophenyl)-4-oxo-4,5-dihydro-1H-pyrazolo[4,3-c]pyridin-3-yl)phenyl)acetamide] |
| 62% | 97% | – | N#Cc1c[nH]c(=O)c2c(-c3ccc(C(N)=O)cc3)cn(C3CCCC3)c12 [Example 81, 4-(7-cyano-1-cyclopentyl-4-oxo-4,5-dihydro-1H-pyrrolo[3,2-c]pyridin-3-yl)benzamide] |
| – | 99% | 99% | CCC1(O)CCC(n2nc(-c3ccc(S(N)(=O)=O)cc3)c3c(=O)[nH]ccc32)CC1 (stereo not drawn) [Example 209, 4-(1-(4-ethyl-4-hydroxycyclohexyl)-4-oxo-4,5-dihydro-1H-pyrazolo[4,3-c]pyridin-3-yl)benzenesulfonamide] |
| 69% | 98% | – | N#CCc1cccc(-c2nn(-c3c(F)cccc3F)c3c(Br)c[nH]c(=O)c23)c1 [Example 146, (3-(7-bromo-1-(2,6-difluorophenyl)-4-oxo-4,5-dihydro-1H-pyrazolo[4,3-c]pyridin-3-yl)phenyl)acetonitrile] |
| 69% | 81% | – | NC(=O)c1cc(-c2cn(C3CCCC3)c3c(C(N)=O)c[nH]c(=O)c23)cs1 [Example 62, 3-(5-carbamoyl-3-thienyl)-1-cyclopentyl-4-oxo-4,5-dihydro-1H-pyrrolo[3,2-c]pyridine-7-carboxamide] |
| 4% | 67% | – | COC(=O)c1cc(-n2nc(-c3ccccc3C)c3c(C#N)c[nH]c(=O)c32)cs1 [Example 68, methyl 4-(4-cyano-3-(2-methylphenyl)-7-oxo-6,7-dihydro-1H-pyrazolo[3,4-c]pyridin-1-yl)thiophene-2-carboxylate] |
| 80% | 91% | – | NS(=O)(=O)c1ccc(-c2nn(C3CCCC3)c3c(Br)c[nH]c(=O)c23)cc1 [Example 101, 4-(7-bromo-1-cyclopentyl-4-oxo-4,5-dihydro-1H-pyrazolo[4,3-c]pyridin-3-yl)benzenesulfonamide] |
| 93% | 93% | – | N#CCc1cccc(-c2nn(C3CCCC3)c3cc[nH]c(=O)c23)c1 [Example 128, (3-(1-cyclopentyl-4-oxo-4,5-dihydro-1H-pyrazolo[4,3-c]pyridin-3-yl)phenyl)acetonitrile] |
| 99% | 98% | – | NC(=O)c1cc(-n2nc(C3CCCC3)c3cc[nH]c(=O)c32)cs1 [Example 117, 4-(3-cyclopentyl-7-oxo-6,7-dihydro-1H-pyrazolo[3,4-c]pyridin-1-yl)thiophene-2-carboxamide] |
| 51% | 99% | – | COCCNC(=O)c1ccc(-c2nn(-c3c(F)cccc3F)c3c(Cl)c[nH]c(=O)c23)cc1 [Example 231, 4-(7-chloro-1-(2,6-difluorophenyl)-4-oxo-4,5-dihydro-1H-pyrazolo[4,3-c]pyridin-3-yl)-N-(2-methoxyethyl)benzamide] |
| 91% | 87% | – | NS(=O)(=O)c1cccc(-c2nn(C3CCCC3)c3cc[nH]c(=O)c23)c1 [Example 159, 3-(1-cyclopentyl-4-oxo-4,5-dihydro-1H-pyrazolo[4,3-c]pyridin-3-yl)benzenesulfonamide] |
